Measured values taken from EPA's ToxValDB 9.5 (doi:10.2903/j.efsa.2014.3787).

Tests used:
Tagia sp. = conditions: for LC50: acute, duration: 14 days, mortality; for NOEC: chronic/long-term, duration: 8 weeks
Folsomia candida = conditions: chronic/long-term, duration: 28 days
Hypoaspis aculeifer = conditions: acute, duration: 14 days
Coturnix japonica = conditions: reproduction developmental; duration: 6 weeks
Apis mellifera = conditions: acute, duration: 72 hours, mortality
Lepomis macrochirus = conditions: acute; duration: 96 hours; mortality
Colinus virginianus = conditions: acute, oral
Daphnia magna = conditions: chronic/long-term; duration: 21 days; mobility
Aphidius rhopalosiphi = assay: LR50; higher = less toxic; conditions: acute; duration: 48 hours; mortality
Typhlodromus pyri = assay: LR50; higher = less toxic; conditions: chronic/long-term; duration: 7 days; mortality

NS(=O)(=O)c1ccccc1C(=O)O [2-Sulfamoylbenzoic acid]
LC50 (Tagia sp.): > 1000 mg/kg
NOEC (Tagia sp.): 1000 mg/kg

CCOc1nc(NC)nc(NC(N)=O)n1 [Ethametsulfuron methyl metabolite (IN-B9161)]
NOEC (Folsomia candida): 76.9 mg/kg
NOEC (Hypoaspis aculeifer): 76.9 mg/kg

CCOc1nc(NC)nc(NC(=O)NS(=O)(=O)c2ccccc2C(=O)OC)n1 [Ethametsulfuron-methyl]
LC50 (Tagia sp.): 116 mg/kg
NOEC (Tagia sp.; reproduction): 27.3 mg/kg
NOEC (Folsomia candida; reproduction): 100 mg/kg
LD50 (Rattus norvegicus; acute, oral, mortality): > 5000 mg/kg-day
NOAEL (Rattus norvegicus; chronic, duration: 2 years, clinical chemistry): 21 mg/kg-day
NOEC (Coturnix japonica): 229 mg/kg-day
LD50 (Apis mellifera; dermal): 4.62 µg/piece
LD50 (Apis mellifera; oral, unspecified): 40.8 µg/piece
LOAEL (Oryctolagus sp.; developmental, development): 250 mg/kg-day
NOAEL (Oryctolagus sp.; reproduction developmental, organ weight): 250 mg/kg-day
LC50 (Lepomis macrochirus): > 123 µg/mL
LD50 (Colinus virginianus; duration: 5 days, diet): > 1160 mg/kg-day
LD50 (Colinus virginianus): 2250 mg/kg-day
NOEC (Hypoaspis aculeifer; reproduction): 100 mg/kg
NOEC (Daphnia magna): 4.7 mg/L
LC50 (Oncorhynchus mykiss; acute, duration: 96 hours, mortality): > 126 µg/mL
NOEC (Oncorhynchus mykiss; chronic/long-term, duration: 87 days, growth): 5.4 mg/L
LR50 (Aphidius rhopalosiphi): > 18.8 g/ha
LR50 (Typhlodromus pyri): > 11.4 g/ha

CCOc1nc(N)nc(NC(=O)NS(=O)(=O)c2ccccc2C(=O)OC)n1 [N-Demethyl ethametsulfuronmethyl]
LC50 (Tagia sp.): > 100 mg/kg
NOEC (Folsomia candida): 50 mg/kg
